Test results published in ChEMBL document CHEMBL5154793, “Discovery of Thieno[2,3-d]pyrimidine-based KRAS G12D inhibitors as potential anticancer agents via combinatorial virtual screening” (Eur J Med Chem, 2022).

Tests used:
Format in all cases: functional, cell-based
[1] = tested on: HeLa; experiment: Antiproliferative activity against human HeLa cells harboring wild type KRAS assessed as inhibition of cell viability after 24 hrs by MTT assay
[2] = tested on: PANC-1; experiment: Antiproliferative activity against human PANC1 cells harboring KRAS G12D mutant assessed as inhibition of cell viability after 24 hrs by MTT assay; settings: PANC-1, 24 h
[3] = tested on: HCT-116; experiment: Antiproliferative activity against human HCT-116 cells harboring KRAS G13D mutant assessed as inhibition of cell viability after 24 hrs by MTT assay; settings: HCT-116, 24 h
[4] = tested on: NCI-H358; experiment: Antiproliferative activity against human NCI-H358 cells harboring KRAS G12C mutant assessed as inhibition of cell viability after 24 hrs by MTT assay; settings: NCI-H358, 24 h
[5] = tested on: SW1990; experiment: Antiproliferative activity against human SW1990 cells harboring KRAS G12D mutant assessed as inhibition of cell viability after 24 hrs by MTT assay; settings: SW1990, 24 h
[6] = tested on: CT26; experiment: Antiproliferative activity against mouse CT26 cells harboring KRAS G12D mutant assessed as inhibition of cell viability after 24 hrs by MTT assay; settings: CT26, 24 h

COc1cc(-c2cc3c(N4CC5CCC(C4)N5)ncnc3s2)cc(C(F)(F)F)c1
IC50 [1]: 10.5 µM | IC50 [2]: 7.7 µM | IC50 [3]: 8 µM | IC50 [4]: 4.5 µM | IC50 [5]: 5.8 µM | IC50 [6]: 7.2 µM

Cc1ccc(-c2cc3c(N4CC5CCC(C4)N5)ncnc3s2)c(C)c1
IC50 [2]: 10.1 µM | IC50 [5]: 5.9 µM | IC50 [6]: 13.4 µM

FC(F)(F)c1ccc(Cl)c(-c2cc3c(N4CC5CCC(C4)N5)ncnc3s2)c1
IC50 [2]: 9.4 µM | IC50 [5]: 4.2 µM | IC50 [6]: 9.7 µM

COc1cc(-c2cc3c(N4CC5CCC(C4)N5)ncnc3s2)cc(OC)c1OC
IC50 [2]: > 20 µM | IC50 [5]: > 20 µM | IC50 [6]: 25 µM

O=[N+]([O-])c1ccc(-c2cc3c(N4CC5CCC(C4)N5)ncnc3s2)cc1
IC50 [2]: 16.8 µM | IC50 [5]: 8.7 µM | IC50 [6]: 4.4 µM

COc1ccc(F)cc1-c1cc2c(N3CC4CCC(C3)N4)ncnc2s1
IC50 [2]: > 20 µM | IC50 [5]: 16.8 µM | IC50 [6]: 22.6 µM

Cc1ccc(-c2cc3c(N4CC5CCC(C4)N5)ncnc3s2)c(Cl)c1
IC50 [2]: 11.4 µM | IC50 [5]: 15.8 µM | IC50 [6]: 13.8 µM

Clc1ccc(Cl)c(-c2cc3c(N4CC5CCC(C4)N5)ncnc3s2)c1
IC50 [1]: 11.3 µM | IC50 [2]: 4.3 µM | IC50 [3]: 15.9 µM | IC50 [4]: 10.1 µM | IC50 [5]: 7.7 µM | IC50 [6]: 6.5 µM

COc1ccc(-c2cc3c(N4CC5CCC(C4)N5)ncnc3s2)cc1F
IC50 [2]: 10.2 µM | IC50 [5]: 13.3 µM | IC50 [6]: 14.1 µM

COc1ccc(Cl)cc1-c1cc2c(N3CC4CCC(C3)N4)ncnc2s1
IC50 [1]: 8.5 µM | IC50 [2]: 4 µM | IC50 [3]: 9.7 µM | IC50 [4]: 9.4 µM | IC50 [5]: 4.9 µM | IC50 [6]: 5.7 µM

COc1cccc(F)c1-c1cc2c(N3CC4CCC(C3)N4)ncnc2s1
IC50 [2]: 15.2 µM | IC50 [5]: 18.8 µM | IC50 [6]: 17 µM

Fc1ccc(-c2cc3c(N4CC5CCC(C4)N5)ncnc3s2)c(F)c1
IC50 [2]: 13 µM | IC50 [5]: 13.4 µM | IC50 [6]: 15.6 µM

Fc1cc(-c2cc3c(N4CC5CCC(C4)N5)ncnc3s2)cc(C(F)(F)F)c1
IC50 [2]: 12.9 µM | IC50 [5]: 7.2 µM | IC50 [6]: 14.7 µM

COc1cc(Cl)ccc1-c1cc2c(N3CC4CCC(C3)N4)ncnc2s1
IC50 [1]: 7.7 µM | IC50 [2]: 6.8 µM | IC50 [3]: 4.9 µM | IC50 [4]: 9.4 µM | IC50 [5]: 9.2 µM | IC50 [6]: 7.2 µM

Clc1ccc(-c2cc3c(N4CC5CCC(C4)N5)ncnc3s2)cc1Cl
IC50 [1]: 12.5 µM | IC50 [2]: 7.5 µM | IC50 [3]: 9.9 µM | IC50 [4]: 9.4 µM | IC50 [5]: 12.1 µM | IC50 [6]: 7.1 µM

C=CC(=O)N1CCN(c2ncnc3c(F)c(-c4c(O)cccc4F)c(Cl)cc23)CC1
IC50 [1]: > 20 µM | IC50 [2]: > 20 µM | IC50 [3]: > 20 µM | IC50 [4]: 0.2 µM | IC50 [5]: > 20 µM | IC50 [6]: > 20 µM

c1ccc(-c2cccc3ccccc23)c(-c2cc3c(N4CC5CCC(C4)N5)ncnc3s2)c1
IC50 [1]: 11.5 µM | IC50 [2]: 2.8 µM | IC50 [3]: 7.9 µM | IC50 [5]: 7.7 µM | IC50 [6]: 12.4 µM

Fc1ccc(F)c(-c2cc3c(N4CC5CCC(C4)N5)ncnc3s2)c1
IC50 [1]: > 40 µM | IC50 [2]: 6.1 µM | IC50 [3]: 27.3 µM | IC50 [4]: 21.5 µM | IC50 [5]: 17.8 µM | IC50 [6]: 11.8 µM

c1ccc(-c2cc3c(N4CC5CC(C4)N5)ncnc3s2)cc1
IC50 [2]: 30.5 µM | IC50 [5]: 40.1 µM | IC50 [6]: 40.5 µM

COc1ccc(Cl)c(-c2cc3c(N4CC5CCC(C4)N5)ncnc3s2)c1
IC50 [2]: 6.7 µM | IC50 [5]: 8 µM | IC50 [6]: 8.4 µM

COc1ccc(F)c(-c2cc3c(N4CC5CCC(C4)N5)ncnc3s2)c1
IC50 [2]: 7.9 µM | IC50 [5]: 10.2 µM | IC50 [6]: 9.8 µM

Fc1cc(-c2cc3c(N4CC5CCC(C4)N5)ncnc3s2)ccc1Cl
IC50 [2]: 24.7 µM | IC50 [5]: 15.9 µM | IC50 [6]: 13 µM

FC(F)(F)c1ccc(-c2cc3c(N4CC5CCC(C4)N5)ncnc3s2)cc1
IC50 [2]: 10.3 µM | IC50 [5]: 6.2 µM | IC50 [6]: 6.9 µM

FC(F)(F)c1cc(Cl)cc(-c2cc3c(N4CC5CCC(C4)N5)ncnc3s2)c1
IC50 [1]: 8.8 µM | IC50 [2]: 5.3 µM | IC50 [3]: 8.2 µM | IC50 [4]: 9.1 µM | IC50 [5]: 7.7 µM | IC50 [6]: 6.5 µM
